Measured values as given in patent publication US11344009B2, “All sterile males of culicine mosquitoes: a method of creation” (priority 2014, dated 2022).

Assays:
Tra-2 = assay: Q-PCR of Tra-2 knockdown level in Tra-2 RNAi/Tet-on transgenic males induced by Dox; assay type: in vivo, Aedes aegypti
Protocol: (§1) The Ae. aegypti strain named Hanoi1 was transformed with a Tra-2 RNAi (long dsmRNA) construct. This construct was assembled with rtTA(pTet-on advanced) and pTre-tight regulatory system as mentioned in Example 1. The strain was challenged with Dox three different concentrations (0.3 mg/L; 3 mg/L and 30 mg/L) between the third larvae stage and 3 day old adult. The males from each Dox concentration challenge were divided into two groups; one group was Q-PCR to reveal the knockdown level of Tra-2. The other group was outcrossed with wild type females. Total RNA from Hanoi 1 wild type males and Tra-2 RNAi/Hanoi 1 transgenic males were isolated in pools of 5 males in 3 biological replicates. The primers used for Actin5C (endogenous reference gene) were F: (5′-[…]-3′) (SEQ ID NO: 53) and R: (5′-[…]-3′) (SEQ ID NO: 54) which produced a 125 bp fragment. Primers used for amplifying Tra-2, which produced a 125 bp fragment nearby the Tra-2 RNAi target site, were: Forward: (5′ […] 3′) (SEQ ID NO: 55) and Reverse: (5′ […] 3′) (SEQ ID NO: 56). Three biological replicates were carried out in each Dox condition. The knockdown of expression levels were calculated by the relative standard curve method (Applied Biosystems), in which Act5C as an endogenous reference and wild type Hanoi 1 as an exogenous calibrator. PCR cycle was 95° C. for 15 mins; 45 cycles of 10 sec at 95° C., 10 sec at XC, 20 sec at 72° C., plate reading. X is annealing temperature, of which 59° C. for the reference gene Actin5C and 55° C. was used for Tra-2 primers. […] 0.3 mg/L caused a slight difference in comparison with wild type (96.98% wild type). […] See details in FIG. 2.

[1] = tested on: Ae. aegypti strain (Hanoi1); assay: Transient expression of long dsmRNA Tra-2 RNAi construct (AaKLC2.1-long-02) injected into embryos; female lethality induced by different Dox concentrations; assay type: in vivo, Aedes aegypti; conditions: for Hatched rate (hatched/injected embryos): 500 embryos injected with AaKLC2.1-long-02
Source text: In this example, we show the transient expression of a Tra-2 RNAi construct which created long dsmRNAs. The detail method to create this construct was described in Example 4. The promoter driving rtTA protein was AaKLC2.1. In the presence of doxycycline (Dox), Tet-On Advanced binds to the tetracycline response element in pTre-tight, and produces high-level tran-scription of the downstream gene. Ae. aegypti strain (Hanoi1) was fed on blood containing three different Dox concentrations to produce eggs containing different Dox doses (mg/litre). The construct named AaKLC2.1-long-02 after Maxiprep purification was diluted in 1^x injection buffer at 1.6 μg/μl. Embryos were desiccated briefly in 50 sec and stuck into a plastic cover slip via a piece of double sticky tape. The Voltalef oil was used to cover the embryos. After injection, the cover slip was then immediately transferred into a cover slip staining rack which was kept in a sealed plastic box with 100% humidity at 27° C. for 3-4 days and then hatched in Dox deoxygenated water. 500 embryos were injected in each Dox concentration. Larvae were reared under standard conditions. Three different Dox concentrations which were equivalent to the concentrations in blood meals were added to the rearing water. The sex ratio among survivors of each Dox concentration were shown in the below table.

[2] = tested on: Ae. aegypti strain Hanoi1 transformed with Tra-2 RNAi (long dsmRNA) construct; assay: Outcross of Dox-induced homozygous Tra-2 RNAi transgenic males with wild type virgin females, sex ratio of the crosses; assay type: in vivo, Aedes aegypti
Protocol: as §1
10 homozygous males (3 day old) from each concentration were crossed with 10 wild type virgin females.

[3] = tested on: wMel Wolbachia in Ae. albopictus strains (Hanoi 1 and Laos2); assay: Dox challenge of Wolbachia trans-infected lines, PCR re-test for presence of Wolbachia (wsp primers 81F/691R); assay type: in vivo, Aedes albopictus; conditions: for Pupae (number from 50 3rd-4th larvae on Dox) / 3 day old adult (on Dox), number: Dox 30 mg/L; for 3 day old adult (on Dox), number: 4-5 days from third larvae to 3 day old adults; for 81F/691R PCR test, number with Wolbachia / 81F/691R PCR test, share with Wolbachia: after Dox 30 mg/L challenge
Protocol: Ae. albopictus strains (Hanoi 1 and Laos2) were trans-infected with Wolbachia from a Drosophila line (Oregon-R). This fly carries wMel Wolbachia. Drosophila embryos were collected as mentioned above. 1-2 day old virgin females were anaesthetized and microinjected directly in the thorax. […] These lines were maintained at a standard condition and challenged with the presence of Dox (30 mg/L) in 4-5 days from the third larvae to 3 day old adults. They were PCR re-tested for the presence of Wolbachia after the challenge using universal wsp primers 81F and 691R^38.

C[C@H]1c2cccc(O)c2C(=O)C2=C(O)[C@]3(O)C(=O)C(C(N)=O)=C(O)[C@@H](N(C)C)[C@@H]3[C@@H](O)[C@@H]21 [Dox, Doxycycline]
Expression level of Tra-2 in males (Tra-2; Dox 0.3 mg/L, third larvae stage to 3 day old adult): 96.98 % wild type
Expression level of Tra-2 in males (Tra-2; Dox 3 mg/L, third larvae stage to 3 day old adult): 73.7 % wild type
Expression level of Tra-2 in males (Tra-2; Dox 30 mg/L, after 5 days treatment): 33.26 % wild type
Hatched rate ([1]; 0.3 mg of Dox/L): (24.4) %
Hatched rate (hatched/injected embryos) ([1]; 0.3 mg of Dox/L): 122/500
Hatched rate ([1]; 3 mg of Dox/L): (18.6) %
Hatched rate (hatched/injected embryos) ([1]; 3 mg of Dox/L): 93/500
Hatched rate ([1]; 30 mg of Dox/L): (14.8) %
Hatched rate (hatched/injected embryos) ([1]; 30 mg of Dox/L): 74/500
Hatch rate (value in brackets) ([2]; males induced at 0.3 mg/L Dox): 95.40
Male ratio (value in brackets) ([2]; males induced at 0.3 mg/L Dox): 51.53
Hatch rate (value in brackets) ([2]; males induced at 3 mg/L Dox): 90.60
Male ratio (value in brackets) ([2]; males induced at 3 mg/L Dox): 64.88
Hatch rate (value in brackets) ([2]; males induced at 30 mg/L Dox): 91.60
Male ratio (value in brackets) ([2]; males induced at 30 mg/L Dox): 93.47
Pupae (number from 50 3rd-4th larvae on Dox) ([3]; wMel/Ae.albopictus Hanoi 1): 50
3 day old adult (on Dox), number ([3]; wMel/Ae.albopictus Hanoi 1): 49
81F/691R PCR test, number with Wolbachia ([3]; wMel/Ae.albopictus Hanoi 1): 49
81F/691R PCR test, share with Wolbachia ([3]; wMel/Ae.albopictus Hanoi 1): 100%
Pupae (number from 50 3rd-4th larvae on Dox) ([3]; wMel/Ae.albopictus Laos2): 50
3 day old adult (on Dox), number ([3]; wMel/Ae.albopictus Laos2): 50
81F/691R PCR test, number with Wolbachia ([3]; wMel/Ae.albopictus Laos2): 50
81F/691R PCR test, share with Wolbachia ([3]; wMel/Ae.albopictus Laos2): 100%
